Data published in PubChem BioAssay (NCI).
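Each compound was tested at five concentrations against cells in 96-well plates for 48 hours. Abbreviation: GI50, concentration required for 50% inhibition of growth. Definition used: TGI = concentration required for complete inhibition of growth.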

Experiments:
Assay in all cases: NCI-60 cell line screen, 48 h; in the data active means GI50 below about 0.43 µM; inactive means the rest
[1] = tested on: SK-OV-3 ovarian
[2] = tested on: HT29 colon
[3] = tested on: TK-10 renal
[4] = tested on: KM12 colon
[5] = tested on: HCT-116 colon
[6] = tested on: CCRF-CEM leukemia
[7] = tested on: OVCAR-3 ovarian
[8] = tested on: NCI-H23 lung
[9] = tested on: HOP-62 NSCLC
[10] = tested on: MDA-N
[11] = tested on: SK-MEL-5 melanoma
[12] = tested on: EKVX NSCLC
[13] = tested on: SNB-19 CNS
[14] = tested on: SW-620 colon
[15] = tested on: SN12C renal
[16] = tested on: MOLT-4 leukemia
[17] = tested on: UACC-62 melanoma
[18] = tested on: A498 renal
[19] = tested on: MDA-MB-231 breast
[20] = tested on: LOX IMVI melanoma
[21] = tested on: OVCAR-5 ovarian
[22] = tested on: 786-0 renal
[23] = tested on: ACHN renal
[24] = tested on: RPMI-8226 leukemia
[25] = tested on: SR leukemia
[26] = tested on: MALME-3M melanoma
[27] = tested on: OVCAR-8 ovarian
[28] = tested on: SK-MEL-28 melanoma
[29] = tested on: UO-31 renal
[30] = tested on: PC-3 prostate
[31] = tested on: SF-295 CNS
[32] = tested on: HS 578T breast
[33] = tested on: SK-MEL-2 melanoma
[34] = tested on: MCF7 breast
[35] = tested on: IGROV1 ovarian
[36] = tested on: COLO 205 colon
[37] = tested on: OVCAR-4 ovarian
[38] = tested on: HOP-92 NSCLC
[39] = tested on: MDA-MB-435
[40] = tested on: M14 melanoma
[41] = tested on: HL-60(TB) leukemia
[42] = tested on: U251 CNS
[43] = tested on: NCI/ADR-RES ovarian
[44] = tested on: NCI-H226 lung
[45] = tested on: NCI-H522 lung
[46] = tested on: DU-145 prostate
[47] = tested on: HCT-15 colon
[48] = tested on: K-562 leukemia
[49] = tested on: A549 NSCLC
[50] = tested on: SNB-75 CNS
[51] = tested on: SF-268 CNS
[52] = tested on: BT-549 breast
[53] = tested on: HCC-2998 colon
[54] = tested on: UACC-257 melanoma
[55] = tested on: SF-539 CNS
[56] = tested on: NCI-H460 lung
[57] = tested on: RXF 393 renal
[58] = tested on: T-47D breast
[59] = tested on: CAKI-1 renal

O=C1/C(=C/c2ccc(O)cc2)NC(=S)N1CN1CCCCC1
56.4 µM: TGI [36]
> 100 µM: TGI [1] | TGI [2] | TGI [3] | TGI [4] | TGI [5] | TGI [6] | TGI [7] | TGI [8] | TGI [9] | TGI [10] | TGI [11] | TGI [12] | TGI [13] | TGI [14] | TGI [15] | TGI [16] | TGI [17] | TGI [18] | TGI [19] | TGI [20] | TGI [21] | TGI [22] | TGI [23] | TGI [24] | TGI [25] | TGI [26] | TGI [27] | TGI [28] | TGI [29] | TGI [30] | TGI [31] | TGI [32] | TGI [33] | TGI [34] | TGI [35] | TGI [37] | TGI [38] | TGI [39] | TGI [40] | TGI [41] | TGI [42] | TGI [43] | TGI [44] | TGI [45] | TGI [46] | TGI [47] | TGI [48] | TGI [49] | TGI [50] | TGI [51]

N#Cc1ccc(Oc2nccc(-c3c(-c4ccc(F)cc4)ncn3C3CCNCC3)n2)cc1
inactive: GI50 [1] > 25 µM | GI50 [2] 3.76 µM | GI50 [3] > 25 µM | GI50 [52] 24.9 µM | GI50 [4] 18.2 µM | GI50 [5] 5.45 µM | GI50 [6] 7.79 µM | GI50 [7] > 25 µM | GI50 [8] > 25 µM | GI50 [9] > 25 µM | GI50 [11] 14.1 µM | GI50 [12] > 25 µM | GI50 [13] > 25 µM | GI50 [14] > 15.4 µM | GI50 [15] > 25 µM | GI50 [16] 8.01 µM | GI50 [17] > 25 µM | GI50 [53] 18.6 µM | GI50 [54] > 22.7 µM | GI50 [18] > 25 µM | GI50 [19] > 22.3 µM | GI50 [20] 5.85 µM | GI50 [21] > 25 µM | GI50 [22] > 25 µM | GI50 [23] > 23.7 µM | GI50 [24] 12.1 µM | GI50 [25] 4.54 µM | GI50 [26] > 16.6 µM | GI50 [27] > 16.6 µM | GI50 [28] > 25 µM | GI50 [55] > 25 µM | GI50 [29] 11.9 µM | GI50 [56] 14 µM | GI50 [30] 13.9 µM | GI50 [31] 16.6 µM | GI50 [32] > 25 µM | GI50 [33] > 25 µM | GI50 [34] 10.7 µM | GI50 [35] > 25 µM | GI50 [57] 20.3 µM | GI50 [58] > 25 µM | GI50 [36] > 25 µM | GI50 [37] > 25 µM | GI50 [38] 4.04 µM | GI50 [39] > 15.1 µM | GI50 [40] > 16.4 µM | GI50 [41] > 25 µM | GI50 [59] > 25 µM | GI50 [42] 11.8 µM | GI50 [43] > 25 µM | GI50 [44] > 25 µM | GI50 [45] > 11.9 µM | GI50 [46] > 25 µM | GI50 [47] > 14.8 µM | GI50 [48] 5.01 µM | GI50 [49] > 16.3 µM | GI50 [50] > 16 µM | GI50 [51] 24.6 µM
12.4 µM: TGI [48]
11.3 µM: TGI [25]
20.8 µM: TGI [16]
24.7 µM: TGI [6]
> 25 µM: TGI [1] | TGI [3] | TGI [52] | TGI [4] | TGI [7] | TGI [8] | TGI [9] | TGI [11] | TGI [12] | TGI [13] | TGI [14] | TGI [15] | TGI [17] | TGI [53] | TGI [54] | TGI [18] | TGI [19] | TGI [21] | TGI [22] | TGI [23] | TGI [24] | TGI [26] | TGI [27] | TGI [28] | TGI [55] | TGI [29] | TGI [56] | TGI [30] | TGI [31] | TGI [32] | TGI [33] | TGI [34] | TGI [35] | TGI [57] | TGI [58] | TGI [36] | TGI [37] | TGI [38] | TGI [39] | TGI [40] | TGI [41] | TGI [59] | TGI [42] | TGI [43] | TGI [44] | TGI [46] | TGI [47] | TGI [49] | TGI [50] | TGI [51]
> 15.6 µM: TGI [45]
8.03 µM: TGI [2]
> 13.5 µM: TGI [5] | TGI [20]

CCOC(=O)/C(C(=S)NC)=C(/N)N1CCCC1
> 100 µM: TGI [1] | TGI [2] | TGI [3] | TGI [4] | TGI [5] | TGI [6] | TGI [7] | TGI [8] | TGI [9] | TGI [10] | TGI [11] | TGI [12] | TGI [13] | TGI [14] | TGI [15] | TGI [16] | TGI [17] | TGI [53] | TGI [54] | TGI [18] | TGI [19] | TGI [20] | TGI [21] | TGI [22] | TGI [23] | TGI [24] | TGI [25] | TGI [26] | TGI [27] | TGI [28] | TGI [55] | TGI [29] | TGI [56] | TGI [30] | TGI [31] | TGI [32] | TGI [33] | TGI [35] | TGI [57] | TGI [58] | TGI [36] | TGI [37] | TGI [38] | TGI [39] | TGI [40] | TGI [41] | TGI [59] | TGI [42] | TGI [43] | TGI [44] | TGI [45] | TGI [46] | TGI [47] | TGI [48] | TGI [49] | TGI [51]
